In the supplement of paper PMC10331698:
± gives the standard deviation of the averaged measurements.

Legend:
Test in all cases: level (log10 ratio to DMSO vehicle control); higher = higher biomarker level / cell amount than vehicle control
Conditions in all cases: in DMSO
Heptafluorobutyramide = compound: NC(=O)C(F)(F)C(F)(F)C(F)(F)F [Heptafluorobutyramide]
Protocol: (§1)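 BioMAP Diversity Plus panel of 12 human primary cell co-culture systems (3C, 4H, LPS, SAg, BT, BF4T, BE3C, CASM3C, HDF3CGF, KF3CT, MyoF, Mphg). Compounds were added 1 h before stimulation and left for 24 h (MyoF 48 h; BT 72 h for soluble read-outs or 6 d for IgG). Biomarkers were read by ELISA, cytotoxicity by SRB, PBMC viability and proliferation by Alamar Blue. Each well value was divided by the mean of 8 DMSO control wells on the same plate and log10 transformed; duplicate blinded samples were tested at 4 concentrations.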

[1] = compound: CCN(CCO)S(=O)(=O)C(F)(F)C(F)(F)C(F)(F)C(F)(F)C(F)(F)C(F)(F)C(F)(F)C(F)(F)F [N-Ethyl-N-(2-hydroxyethyl)perfluorooctanesulfonamide]
Protocol: as §1

Perfluoropropanoic acid = compound: O=C(O)C(F)(F)C(F)(F)F [Perfluoropropanoic acid]
Protocol: as §1

[2] = compound: O=C(O)C(F)(F)OC(F)(F)C(F)(F)OC(F)(F)C(=O)O [Perfluoro-3,6-dioxaoctane-1,8-dioic acid]
Protocol: as §1

[3] = compound: OCCC(F)(F)C(F)(F)C(F)(F)C(F)(F)C(F)(F)C(F)(F)F [6:2 Fluorotelomer alcohol]
Protocol: as §1

Perfluoropentanoic acid = compound: O=C(O)C(F)(F)C(F)(F)C(F)(F)C(F)(F)F [Perfluoropentanoic acid]
Protocol: as §1

[4] = compound: FC(F)(F)C(F)(C(F)(F)F)C(F)(F)C(F)(F)CC1CO1 [3-(Perfluoro-3-methylbutyl)-1,2-propenoxide]
Protocol: as §1

Test System	level (log10) (Heptafluorobutyramide; 6700 nM)	level (log10) (Heptafluorobutyramide; 20000 nM)	level (log10) (Heptafluorobutyramide; 60000 nM)	level (log10) ([1]; 6700 nM)	level (log10) ([1]; 20000 nM)	level (log10) (Perfluoropropanoic acid; 6700 nM)	level (log10) (Perfluoropropanoic acid; 20000 nM)	level (log10) (Perfluoropropanoic acid; 60000 nM)	level (log10) ([2]; 6700 nM)	level (log10) ([2]; 20000 nM)	level (log10) ([2]; 60000 nM)	level (log10) ([3]; 6700 nM)	level (log10) ([3]; 20000 nM)	level (log10) (Perfluoropentanoic acid; 6700 nM)	level (log10) (Perfluoropentanoic acid; 20000 nM)	level (log10) (Perfluoropentanoic acid; 60000 nM)	level (log10) ([4]; 6700 nM)	level (log10) ([4]; 20000 nM)
BF4T:CXCL8/IL-8	0.032 ± 0.061	0.024 ± 0.057	0.0155 ± 0.012	-0.015 ± 0.014	-0.004 ± 0.0014	0.043 ± 0.037	0.033 ± 0.035	0.046 ± 0.052	-0.011 ± 0.023	-0.0305 ± 0.0064	-0.0025 ± 0.037	0.0185 ± 0.015	0.0005 ± 0.005	-0.0345 ± 0.013	-0.0295 ± 0.013	-0.0105 ± 0.035	0.0045 ± 0.015	0.014 ± 0.03
LPS:CCL2/MCP-1	0.0255 ± 0.0035	0.0105 ± 0.0078	0.0275 ± 0.057	-0.017 ± 0.025	-0.0535 ± 0.012	-0.011 ± 0.014	-0.008 ± 0.031	0.019 ± 0.068	-0.02 ± 0.023	-0.011 ± 0.021	0.0075 ± 0.036	0.002 ± 0.0085	-0.022 ± 0.0071	0.0065 ± 0.0064	-0.0065 ± 0.00071	0.0225 ± 0.039	-0.01 ± 0.0057	0.005 ± 0.024
SAg:Proliferation	-0.0035 ± 0.03	-0.0055 ± 0.00071	-0.0265 ± 0.011	-0.098 ± 0.0057	-0.335 ± 0.098	-0.0205 ± 0.043	-0.0085 ± 0.019	-0.0025 ± 0.07	-0.017 ± 0.05	-0.011 ± 0.035	-0.0085 ± 0.021	-0.015 ± 0.027	-0.024 ± 0.013	-0.0195 ± 0.04	0.0205 ± 0.046	0.0175 ± 0.08	0.028 ± 0.017	0.007 ± 0.12
BT:Secreted IgG	0.034 ± 0.0085	-0.005 ± 0.031	0.0285 ± 0.025	-0.002 ± 0.016	-1.16 ± 0.3	0.036 ± 0.028	0.03 ± 0.0057	-0.004 ± 0.057	0.032 ± 0.025	0.0095 ± 0.005	-0.0365 ± 0.036	0.02	0.0195 ± 0.0035	-0.0065 ± 0.016	0.0145 ± 0.0035	-0.009 ± 0.059	-0.007 ± 0.064	0.016 ± 0.09
BT:B cell Proliferation	0.0055 ± 0.018	-0.02 ± 0.025	-0.003 ± 0.03	0.0165 ± 0.005	-0.0405 ± 0.059	0.0125 ± 0.044	-0.041 ± 0.0085	-0.002 ± 0.051	0.0095 ± 0.016	-0.009 ± 0.023	0.0035 ± 0.0035	0.022 ± 0.0057	-0.01 ± 0.014	0.009 ± 0.0057	0.0215 ± 0.06	0.0275 ± 0.012	-0.002 ± 0.025	0.017 ± 0.0099
BT:sIL-17F	-0.001 ± 0.035	-0.0165 ± 0.018	-0.006 ± 0.03	-0.0225 ± 0.029	-0.299 ± 0.037	0.0335 ± 0.0035	0.0335 ± 0.023	-0.0045 ± 0.052	-0.146 ± 0.0057	-0.102 ± 0.057	-0.0675 ± 0.022	-0.087 ± 0.17	-0.146 ± 0.18	-0.06 ± 0.027	-0.0325 ± 0.044	0.0375 ± 0.19	0.0485 ± 0.028	-0.0345 ± 0.093
3C:Proliferation	0.006 ± 0.04	0.003 ± 0.051	-0.006 ± 0.045	-0.267 ± 0.087	-0.947 ± 0.17	0.019 ± 0.016	0.024 ± 0.073	-0.051 ± 0.083	0.002 ± 0.0028	-0.038 ± 0.044	-0.033 ± 0.014	-0.0325 ± 0.066	-0.015 ± 0.086	-0.029 ± 0.028	0.011	0.0015 ± 0.046	-0.014 ± 0.016	-0.002 ± 0.042
4H:CCL26/Eotaxin-3	0.0315 ± 0.021	0.0345 ± 0.0035	0.0185 ± 0.019	0.077 ± 0.031	-0.143 ± 0.14	-0.0115 ± 0.0092	-0.0045 ± 0.012	-0.015 ± 0.017	0.0045 ± 0.022	0.017 ± 0.021	0.0085 ± 0.0092	0.0545 ± 0.013	0.016 ± 0.04	0.0015 ± 0.0035	-0.0185 ± 0.022	0.004 ± 0.05	-0.002 ± 0.018	0.013 ± 0.013
LPS:sTNF-alpha	0.012 ± 0.017	0.013 ± 0.011	0.001 ± 0.023	-0.006 ± 0.0028	-0.005 ± 0.0085	-0.006 ± 0.013	0.0065 ± 0.00071	0.0175 ± 0.0021	-0.012 ± 0.057	0.0145 ± 0.063	0.0445 ± 0.059	-0.0335 ± 0.17	-0.016 ± 0.16	0.003 ± 0.021	0.01 ± 0.0071	0.021 ± 0.014	0.0005 ± 0.0078	-0.0025 ± 0.005
BT:PBMC Cytotoxicity	0.014 ± 0.0099	0.0025 ± 0.025	0.0105 ± 0.013	-0.003 ± 0.027	-0.0615 ± 0.0035	-0.0215 ± 0.056	-0.013 ± 0.027	-0.005 ± 0.0085	-0.018 ± 0.057	-0.0495 ± 0.0064	-0.0125 ± 0.012	-0.0185 ± 0.026	-0.035 ± 0.0071	0.0075 ± 0.035	-0.0055 ± 0.0078	0.0255 ± 0.013	-0.0055 ± 0.023	0.005 ± 0.013
BF4T:CCL2/MCP-1	0.008 ± 0.058	-0.011 ± 0.04	0.014 ± 0.047	-0.004 ± 0.013	-0.022 ± 0.0028	-0.0125 ± 0.011	-0.0095 ± 0.005	0.061 ± 0.083	0.018 ± 0.027	0.0135 ± 0.053	0.0265 ± 0.043	0.024 ± 0.033	0.02 ± 0.014	0.004 ± 0.047	-0.0035 ± 0.052	-0.0275 ± 0.025	-0.011 ± 0.011	-0.0035 ± 0.0092
BF4T:CCL26/Eotaxin-3	0.0165 ± 0.022	-0.0035 ± 0.0021	0.0045 ± 0.012	0.0905 ± 0.029	0.141 ± 0.0028	-0.004 ± 0.031	-0.0105 ± 0.04	0.03 ± 0.044	-0.048 ± 0.059	-0.037 ± 0.033	0.0145 ± 0.11	-0.0055 ± 0.15	-0.023 ± 0.081	-0.0155 ± 0.029	-0.0165 ± 0.0092	0.018 ± 0.05	0.012 ± 0.028	-0.0095 ± 0.016
BF4T:CD54/ICAM-1	-0.0065 ± 0.011	-0.013 ± 0.0042	0.0015 ± 0.015	0.0495 ± 0.016	0.032 ± 0.0042	0.006 ± 0.021	-0.0045 ± 0.047	0.018 ± 0.027	-0.0025 ± 0.018	-0.007 ± 0.0057	0.012 ± 0.027	-0.004 ± 0.0014	-0.0025 ± 0.011	-0.0155 ± 0.0021	-0.0135 ± 0.005	0.0015 ± 0.043	0.0005 ± 0.018	-0.011 ± 0.021
BE3C:CXCL11/I-TAC	-0.0035 ± 0.0064	0.005 ± 0.0042	-0.0015 ± 0.00071	-0.006 ± 0.023	-0.0035 ± 0.029	0.007 ± 0.0071	0.013 ± 0.014	0.029 ± 0.033	-0.0145 ± 0.0021	-0.015 ± 0.0042	-0.006 ± 0.013	-0.017 ± 0.0028	-0.022 ± 0.0057	-0.0175 ± 0.012	-0.015 ± 0.0028	-0.005 ± 0.014	0 ± 0.0057	-0.0075 ± 0.0035
LPS:M-CSF	-0.003 ± 0.016	-0.006 ± 0.0014	-0.006 ± 0.0057	0.0495 ± 0.033	0.104 ± 0.041	0.006 ± 0.0028	-0.027 ± 0.0014	-0.0005 ± 0.037	0.0035 ± 0.005	-0.002 ± 0.0028	0.021	0.0085 ± 0.0035	-0.005 ± 0.021	-0.031 ± 0.024	-0.061 ± 0.11	-0.0385 ± 0.11	-0.0005 ± 0.019	0.021 ± 0.038
LPS:CD62E/E-Selectin	-0.0065 ± 0.022	-0.0195 ± 0.016	-0.0365 ± 0.035	0.071 ± 0.02	0.073 ± 0.0042	-0.007 ± 0.0014	-0.0195 ± 0.023	-0.0025 ± 0.0078	0.019 ± 0.013	-0.0035 ± 0.0092	-0.003 ± 0.0028	0.01 ± 0.038	-0.025 ± 0.025	0.01 ± 0.0057	-0.004 ± 0.0071	0.015 ± 0.018	0.0165 ± 0.0035	0.0245 ± 0.025
